Test results as given in patent US20230157952A1, “METHOD FOR IMPROVING THE STABILITY OF A PHARMACEUTICAL COMPOSITION COMPRISING A HIGH PENETRATION DRUG, AND THE PHARMACEUTICAL COMPOSITION OBTAINED THEREFROM” (Techfields Inc., priority 2020, published 2023).

Columns and labels:
[1] = Effect of pH value on the stability of the solution (purity); type: physicochemical; details: 25° C.
[2] = Effect of temperature (and pH) on the stability of the solution (purity); type: physicochemical; details: 7% solution in water
[3] = Stability of the pure HPDs (dry solid) at 25° C./RH 60%; type: physicochemical; details: pure HPD, 25° C./RH 60%, listed as A-1-1
[4] = Effect of concentration on the stability of the solution (purity over time); details: in water at 25° C.

CCN(CC)CCOC(=O)[C@H](C)c1ccc2cc(OC)ccc2c1.Cl (racemic) [2-(diethylamino)ethyl (R,S)-2-(6-methoxy-2-naphthyl)propionate•HCl]
Purity(%) from day 0-28 ([1]; day 28, pH 1.0, 7% solution in water): 68.9 ± 0.3% | Purity(%) from day 0-28 ([1]; day 28, pH 2.0, 7% solution in water): 80.9 ± 0.4% | Purity(%) from day 0-28 ([1]; day 28, pH 3.0, 7% solution in water): 90.3 ± 0.3% | Purity(%) from day 0-28 ([1]; day 28, pH 3.7, 7% solution in water): 97.2 ± 0.2% | Purity(%) from day 0-28 ([1]; day 28, pH 5.0, 7% solution in water): 96.3 ± 0.2% | Purity(%) from day 0-28 ([1]; day 28, pH 6.0, 7% solution in water): 89.9 ± 0.3% | Purity(%) from day 0-28 ([1]; day 28, pH 7.0, 7% solution in water): 65.8 ± 0.3% | Purity(%) from day 0-28 ([1]; day 28, pH 8.0, 7% solution in water): 45.8 ± 0.4% | Stability of the solution at a temperature higher than 40° C. and a pH lower than 3 or greater than 6 [2]: not stable | Purity ([3]; 3 month): 98.6 ± 0.1 | Purity ([3]; 6 month): 98.8 ± 0.1 | Purity ([3]; Day 0): 98.8 ± 0.2 | Purity at Day 3 ([4]; 0.01 wt %): 79.6% | Purity at Day 7 ([4]; 0.01 wt %): 73.4% | Purity at Day 14 ([4]; 0.01 wt %): 68.7% | Purity at Day 21 ([4]; 0.01 wt %): 64.5% | Purity at Day 28 ([4]; 0.01 wt %): 61.4% | Purity at hr 24 ([4]; 0.01 wt %): 91.7% | Purity at Day 7 ([4]; 0.1 wt %): 97.2% | Purity at Day 14 ([4]; 0.1 wt %): 96.1% | Purity at Day 21 ([4]; 0.1 wt %): 95.4% | Purity at Day 28 ([4]; 0.1 wt %): 94.1% | Purity at Day 14 ([4]; 1 wt %): 97.4% | Purity at Day 21 ([4]; 1 wt %): 96.9% | Purity at Day 28 ([4]; 1 wt %): 96.4% | Purity at Day 21 ([4]; 3 wt %): 97.6% | Purity at Day 28 ([4]; 3 wt %): 97.1% | Purity at Day 28 ([4]; 5 wt %): 97.5% | Purity at Day 21 ([4]; 8 wt %): 97.5% | Purity at Day 28 ([4]; 8 wt %): 97.6% | Purity at Day 21 ([4]; 10 wt %): 97.4% | Purity at Day 28 ([4]; 10 wt %): 97.6% | Purity at Day 21 ([4]; 15 wt %): 97.5% | Purity at Day 28 ([4]; 15 wt %): 97.6% | Purity at Day 21 ([4]; 20 wt %): 97.4% | Purity at Day 28 ([4]; 20 wt %): 97.6% | Stability when the concentration is 0.1% or lower [4]: not stable
